Source: patent US20100234351A1, “FUSED NITROGEN-COMPRISING HETEROCYCLIC COMPOUND” (TAKEDA PHARMACEUTICAL COMPANY LIMITED, priority 2006, published 2010)
Where a name gives a salt, the structure may show the parent alone.

Assays:
[1] = biological target: T1, EGFR intracellular domain (Homo sapiens, UniProt P00533); assay: Assay of EGFR kinase inhibitory activity; format: biochemical; details: compound 1.0 μM, poly-Glu:Tyr (4:1) substrate, [γ-32P]ATP, read-out: Inhibitory rate (%) at 1.0 μM
T1 construct: made in house; host or cells: SF-21 insect cells infected with recombinant baculovirus BAC-EGFR
T1 sequence (P00533 669-1210): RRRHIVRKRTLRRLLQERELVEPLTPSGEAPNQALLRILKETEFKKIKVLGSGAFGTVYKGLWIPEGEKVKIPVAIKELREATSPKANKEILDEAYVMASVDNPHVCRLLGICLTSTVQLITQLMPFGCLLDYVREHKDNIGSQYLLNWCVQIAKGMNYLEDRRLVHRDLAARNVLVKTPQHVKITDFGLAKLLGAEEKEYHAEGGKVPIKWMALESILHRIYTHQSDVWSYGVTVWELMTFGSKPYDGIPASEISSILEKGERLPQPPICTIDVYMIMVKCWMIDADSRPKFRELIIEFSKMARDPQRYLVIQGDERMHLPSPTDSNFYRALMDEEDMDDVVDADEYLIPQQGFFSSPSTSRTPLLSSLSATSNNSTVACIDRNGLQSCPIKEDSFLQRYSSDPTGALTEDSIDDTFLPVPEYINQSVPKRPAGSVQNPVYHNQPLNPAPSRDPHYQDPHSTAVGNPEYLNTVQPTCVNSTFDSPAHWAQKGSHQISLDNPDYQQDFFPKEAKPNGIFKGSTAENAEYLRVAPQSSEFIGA
Method: Human EGFR gene was cloned by RT-PCR using total RNA prepared from A431 cell as a template. The primer used for RT-PCR was prepared from base sequence (Genbank Accession No. X00588) information of EGFR gene, adding DYKDDDD base sequence encoding the peptide and a restriction enzyme recognition sequence to a base sequence (2191-3819 of Genbank Accession No. X00588 as a base, and corresponding to 669-1210 amino acid of Genbank Accession No. NP_005219 as a protein) encoding the EGFR intracellular domain, so that a DYKDDDD peptide tag would be attached to the N-terminus of the protein. The base sequence of the primer is shown in below.
The RT reaction was performed using Superscript First-Strand Synthesis System for RT-PCR (Invitrogen), and PCR reaction was performed using KOD-plus kit (TOYOBO). The obtained PCR product was electrophoresed on agarose gel (1%), and the DNA fragment amplified by PCR was recovered from the gel, and then digested with restriction enzymes Sal I and Sph I. The DNA treated with the restriction enzymes was electrophoresed on agarose gel (1%), and the obtained DNA fragment was recovered and ligated to plasmid pFASTBAC1 (Invitrogen) digested with restriction enzymes Sal I and Sph I to give expression plasmid pFB-EGFR. The base sequence of the inserted fragment was confirmed and found to be identical with the base sequence of the EGFR intracellular domain (2191-3819 of Genbank Accession X00588). Furthermore, virus stock BAG-EGFR of recombinant Baculovirus was prepared using BAC-TO-BAC Baculovirus Expression System (Invitrogen).
SF-21 cells were sown at 1×10^6 cells/mL to 1 L of Sf-900II SFM medium (Invitrogen) containing 10% fetal calf serum (trace), 50 mg/L Gentamicin (Invitrogen) and 0.1% Pluronic F-68 (Invitrogen), and cultured with shaking in a 2 L Erlenmeyer flask at 27° C., 100 rpm. After culture for 24 hr, recombinant Baculovirus BAC-EGFR (13.4 mL) was added thereto, and the cells were further cultured for 3 days. The culture medium was centrifuged at 2,000 rpm for 5 min to give virus infected cells. The infected cells were washed with phosphate buffered saline (Invitrogen), centrifuged under the same conditions, and preserved at −80° C. The cryopreserved cells were thawed in ice and suspended in 30 mL of buffer A containing Complete Protease Inhibitor (Boehringer) (50 mM tris buffer (pH 7.4) containing 20% Glycerol, 0.15 M NaCl). The cells were disrupted 3 times at 20,000 rpm for 30 sec using a polytron homogenizer (Kinematica). The disrupt was clarified by centrifugation at 40,000 rpm for 30 min and filtered through a 0.45 μm filter. The filtrate was passed through a column packed with 4 mL of Anti-FLAG M2 Affinity Gel (Sigma Aldrich Co.) at a flow rate of about 0.5 mL/min. The column was washed with buffer A, and eluted with buffer A containing 100 μg/mL of FLAG peptide. The eluate was concentrated with Vivaspin 20 having a molecular weight cut off of 30 K (Vivascience). The concentrate was purified by gel filtration using Hi-Load 16/60 Superdex 200 pg (GE Healthcare Bioscience) equilibrated with buffer A. The fractions containing EGFR intracellular domain were collected and cryopreserved at −80° C.
EGFR kinase reaction was carried out using a 96-well plate. As a buffer for Kinase reaction, a buffer of a composition of 50 mM Tris-HCl (pH 7.5), 5 mM MnCl2, 2 mM dithiothreitol and 0.01% Tween-20 was used. […]

[2] = test system: human breast cancer cell BT-474; assay: Inhibitory action on breast cancer cell BT-474 proliferation in vitro; format: cell-based; details: 120 h, BT-474 cells, cultured 5 days with compound, SRB staining of cell protein
Method: A suspension of human breast cancer cell BT-474 (100 μl (6,000 cells)) were plated to 96-well microplate and cultured in an incubator (37° C., 5% carbon dioxide). On the following day, 100 μl of a solution of each test compound previously diluted serially in 2-fold, was added to give indicated dose, and the cells were cultured for 5 days. The culture medium containing the test compound was removed, and the cells were washed, and fixed with 50% trichloroacetic acid, and 0.4% w/v) SRB solution (dissolved in 1% acetic acid) was added to stain the cell protein (Skehan et al., Journal of the National Cancer Institute, Vol. 82, pp. 1107-1112, 1990). After washing with a 1% acetic acid solution, 100 μl of Tris solution (10 mM) was added to extract the pigment and the absorbance was measured at a wavelength of 550 nm to quantify the amount of cells as protein content. Taking as 100% the protein content for the control group, which received no test compound solution, the ratio of the residual protein content for each treatment group was determined, and the compound concentration required to achieve 50% suppression of the residual cell content relative to the control (IC50 value) was calculated.

[3] = biological target: T2, HER2 intracellular domain (Homo sapiens, UniProt P04626); assay: Measurement of HER2 kinase inhibitory activity; format: biochemical; details: compound 1.0 μM, poly-Glu:Tyr (4:1) substrate, [γ-32P]ATP, read-out: Inhibitory rate (%) at 1.0 μM
T2 construct: made in house; host or cells: SF-21 insect cells infected with recombinant baculovirus BAC-HER2
T2 sequence (P04626 676-1255): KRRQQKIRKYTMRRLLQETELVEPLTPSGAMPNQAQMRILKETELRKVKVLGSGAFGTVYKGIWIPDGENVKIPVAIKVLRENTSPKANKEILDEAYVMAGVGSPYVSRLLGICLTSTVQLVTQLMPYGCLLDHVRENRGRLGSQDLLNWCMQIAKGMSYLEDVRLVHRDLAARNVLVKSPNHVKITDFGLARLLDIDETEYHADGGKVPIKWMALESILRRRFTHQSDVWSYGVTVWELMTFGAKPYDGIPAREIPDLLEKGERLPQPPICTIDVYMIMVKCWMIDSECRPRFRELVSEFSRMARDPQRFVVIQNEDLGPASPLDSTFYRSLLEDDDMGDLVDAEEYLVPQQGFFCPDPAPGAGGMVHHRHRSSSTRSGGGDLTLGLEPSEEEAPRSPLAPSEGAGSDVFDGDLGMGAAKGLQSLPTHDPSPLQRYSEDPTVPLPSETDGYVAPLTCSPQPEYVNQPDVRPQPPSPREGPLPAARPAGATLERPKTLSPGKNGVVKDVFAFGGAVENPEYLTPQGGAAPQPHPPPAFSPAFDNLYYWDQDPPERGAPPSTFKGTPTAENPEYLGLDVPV
Method: Human HER2 gene was cloned by RT-PCR using total RNA prepared from MCF7 cells as a template. The primer used for RT-PCR was prepared from base sequence (Genbank Accession No. M11730) information of HER2 gene, adding base sequence encoding DYKDDDD peptide and a restriction enzyme recognition sequence to a nucleotide sequence (2176-3918 of Genbank Accession No. M11730 as a base, and corresponding to 676-1255 amino acid of Genbank Accession No. NP_004439 as a protein) encoding the HER2 intracellular domain region, so that a DYKDDDD peptide tag would be attached to the N-terminus of the protein. The base sequence of the primer is shown in below.
The RT reaction was performed using Superscript First-Strand Synthesis System for RT-PCR (Invitrogen) and the PCR reaction was performed using KOD-plus kit (TOYOBO). The obtained PCR product was electrophoresed on agarose gel (1%), and the DNA fragment amplified by PCR was recovered from the gel, and then digested with restriction enzymes Sal I and Sph I. The DNA treated with the restriction enzymes was electrophoresed on agarose gel (1%), and the obtained DNA fragment was recovered and ligated to plasmid pFASTBAC1 (Invitrogen) digested with restriction enzymes Sal I and Sph I to give expression plasmid pFB-HER2. The base sequence of the inserted fragment was confirmed and found to be identical with the base sequence of HER2 intracellular domain (2176-3918 of Genbank Accession M11730). Furthermore, using BAC-TO-BAC Baculovirus Expression System (Invitrogen), recombinant baculovirus BAC-HER2 was prepared.
SF-21 cells were sown at 1×10^6 cells/mL to 1 L of Sf-900II SFM medium (Invitrogen) containing 10% fetal calf serum (trace), 50 mg/L gentamicin (Invitrogen) and 0.1% Pluronic F-68 (Invitrogen), and cultured with shaking in 2 L volume Erlenmeyer flask at 27° C., 100 rpm. After culturing for 24 hr, recombinant baculovirus BAC-HER2 (13.4 mL) was added thereto, and the cells were further cultured for 3 days. The culture medium was centrifuged at 2,000 rpm for 5 min to give virus-infected cells. The infected cells were washed with phosphate buffered saline (Invitrogen), centrifuged under the same conditions, and preserved at −80° C. The cryopreserved cells were thawed in ice and suspended in buffer A (50 mM Tris buffer (30 mL, pH 7.4) containing 20% glycerol, 0.15 M NaCl) supplemented with Complete Protease Inhibitor (Boehringer). The cells were ruptured 3 times with a Polytron homogenizer (Kinematica) at 20,000 rpm for 30 sec. The disrupt was clarified by centrifugation at 40,000 rpm for 30 min and filtered with a 0.45 μm filter. The filtrate was passed through a column packed with Anti-FLAG M2 Affinity Gel (4 mL, Sigma Aldrich CO.) at a flow rate of about 0.5 mL/min. The column was washed with buffer A, and eluted with buffer A containing 100 μg/mL of FLAG peptide. The eluate was concentrated with Vivaspin 20 (Vivascience) having a molecular weight cut off of 30K. The concentrate was purified by gel filtration using Hi-Load 16/60 Superdex 200pg (GE Healthcare Bioscience) equilibrated with buffer A. The fractions containing HER2 intracellular domain were collected and cryopreserved at −80° C.
HER2 kinase reaction was carried out using 96-well plate. As a buffer for Kinase reaction, a buffer of a composition of 50 mM Tris-HCl (pH 7.5), 5 mM MnCl2, 2 mM dithiothreitol and 0.01% Tween-20 was used. The compound of the present invention was dissolved in dimethyl sulfoxide (DMSO), and diluted with a buffer for kinase reaction so that the DMSO concentration would become 0.1% during kinase reaction. The compound solution (10 μL) was mixed with a buffer for kinase reaction (20 μL) containing the HER2 intracellular domain (0.625 μg/mL) obtained in Experimental Example 1B and a polypeptide substrate poly-Glu:Tyr (4:1) (12.5 μg/mL, Sigma Ltd.) and the mixture was stood for 5 min at room temperature. […]

Structure (SMILES)	inhibition at 1 µM [1]	IC50 [2]	inhibition at 1 µM [3]
O=C(NCCCn1ccnc1)C1=Cc2c(ncnc2Nc2ccc(Oc3cccc(C(F)(F)F)c3)c(Cl)c2)NCC1 [Example 115, 4-({3-chloro-4-[3-(trifluoromethyl)phenoxy]phenyl}amino)-N-[3-(1H-imidazol-1-yl)propyl]-8,9-dihydro-7H-pyrimido[4,5-b]azepine-6-carboxamide]	95%	–	–
O=C(NCCOCCO)C1=Cc2c(ncnc2Nc2ccc(Oc3cccc(C(F)(F)F)c3)c(Cl)c2)NCC1 [Example 119, 4-({3-chloro-4-[3-(trifluoromethyl)phenoxy]phenyl}amino)-N-[2-(2-hydroxyethoxy)ethyl]-8,9-dihydro-7H-pyrimido[4,5-b]azepine-6-carboxamide]	96%	< 100 nM	–
COCCOCCNC(=O)C1=Cc2c(ncnc2Nc2ccc(Oc3cccc(C(F)(F)F)c3)c(Cl)c2)NCC1 [Example 122, 4-({3-chloro-4-[3-(trifluoromethyl)phenoxy]phenyl}amino)-N-[2-(2-methoxyethoxy)ethyl]-8,9-dihydro-7H-pyrimido[4,5-b]azepine-6-carboxamide]	–	< 100 nM	96%
O=C(NCC(O)CO)C1=Cc2c(ncnc2Nc2ccc(Oc3cccc(C(F)(F)F)c3)c(Cl)c2)NCC1 (stereo not drawn) [Example 136, 4-({3-chloro-4-[3-(trifluoromethyl)phenoxy]phenyl}amino)-N-(2,3-dihydroxypropyl)-8,9-dihydro-7H-pyrimido[4,5-b]azepine-6-carboxamide]	97%	–	–
O=C(NCCOCCO)C1=Cc2c(ncnc2Nc2ccc(Oc3cccc(Cl)c3)c(Cl)c2)NCC1 [Example 143, 4-{[3-chloro-4-(3-chlorophenoxy)phenyl]amino}-N-[2-(2-hydroxyethoxy)ethyl]-8,9-dihydro-7H-pyrimido[4,5-b]azepine-6-carboxamide hydrochloride]	97%	< 100 nM	–
O=C(NCCS(=O)(=O)CCO)C1=Cc2c(ncnc2Nc2ccc(Oc3cccc(C(F)(F)F)c3)c(Cl)c2)NCC1 [Example 147, 4-({3-chloro-4-[3-(trifluoromethyl)phenoxy]phenyl}amino)-N-{2-[(2-hydroxyethyl)sulfonyl]ethyl}-8,9-dihydro-7H-pyrimido[4,5-b]azepine-6-carboxamide]	95%	–	–
